From patent publication US6084074A, “Stabilized aqueous liquid preparations of blood coagulation factor XIII” (Centeon Pharma GmbH, priority 1995, dated 2000) come the findings set out here.

In data set [1] the test system is human blood coagulation factor XIII. Nature of the data set: optimum concentration of stabilizers: residual factor XIII activity after 60° C. for 30 minutes (Example 1). In kind it is physicochemical. The text has this:
As for the measuring methods of factor XIII activity, fibrin formation, transglutaminase activity measurement, and immunologic measurement of antigen amount can be mentioned. Herein, the dansylcadaverine method (Nishida J., et al. Thromb. Res., vol. 36 pp. 123-131 (1984)) was adopted which can determine quantitatively the active factor XIII with high accuracy. Dansylcadaverine (purchased from YATRON) is a fluorescent amine which is the substrate of factor XIII, and forms dansylcadaverine-casein complex with casein by the action of factor XIII; the complex is separated by gel-filtration after the reaction and the factor XIII activity can be determined by the fluorescence intensity of the complex. The factor XIII activity is expressed by units; one unit is the amount of factor XIII which is contained in one milliliter of normal human plasma.
Optimum concentration of the present stabilizers was investigated.
To factor XIII produced according to the recombinant DNA technology as disclosed in DE 3804890 Al and incorporated by reference herein, (adjusted to the final titer of 100 units/ml with the water for injection according to the Pharmacopoeia of Japan) was added galactose, sucrose, D-sorbitol, sodium L-glutamate, sodium L-aspartate or L-histidine, and the mixture was warmed in a hot water bath at 60° C. for 30 minutes and then the activity of factor XIII was determined. Residual activity rate (%) of factor XIII was calculated, defining as 100% factor XIII activity of the preparation wherein factor XIII solution was adjusted to a titer of 100 units/ml.

The subject of data set [2] is factor XIII prepared by recombinant DNA technology. As to the kind of experiment: storage stabilizer effect on factor XIII prepared by recombinant DNA technology. The data set is classed as physicochemical, human.

As to `OC[C@@H](O)[C@@H](O)[C@H](O)[C@@H](O)CO` [D-Sorbitol], in data set [1], the “effective concentration of stabilizer” value is 1.25-40 w/v %. Further, the “Residual Activity Rate” value in data set [1] (additive conc. 1.25 w/v %) came out at 73.8%; in data set [1] (additive conc. 2.5 w/v %), 73.9%; in data set [1] (additive conc. 5.0 w/v %), 74.5%; in data set [1] (additive conc. 10 w/v %), 94.0%; in data set [1] (additive conc. 15 w/v %), 98.4%; in data set [1] (additive conc. 20 w/v %), 96.0%. In data set [1] (additive conc. 40 w/v %), the “Residual Activity Rate” value was determined as 86.9%.

As for `NCC(=O)O` [Glycine], in data set [2], the “effect as storage stabilizer (in words)” value was “ineffective”.

On to `N[C@@H](Cc1c[nH]cn1)C(=O)O` [L-Histidine, L-histidine], for which the “Residual Activity Rate” value in data set [1] (additive conc. 0.125 w/v %) came to 62.2%; in data set [1] (additive conc. 0.25 w/v %), 71.6%; in data set [1] (additive conc. 0.5 w/v %), 78.4%; in data set [1] (additive conc. 1.0 w/v %) it was 97.4%; in data set [1] (additive conc. 2.0 w/v %), 65.3%.

With `N[C@@H](CC(=O)[O-])C(=O)[O-].[Na+].[Na+]` [Sodium L-aspartate, sodium L-aspartate], the “Residual Activity Rate” value in data set [1] (additive conc. 0.125 w/v %) was 83.3%; in data set [1] (additive conc. 0.25 w/v %) it was 80.9%; in data set [1] (additive conc. 0.5 w/v %), 93.3%; in data set [1] (additive conc. 1.0 w/v %), 101.1%; in data set [1] (additive conc. 2.0 w/v %), 66.5%; in data set [1] (additive conc. 5.0 w/v %), 58.8%. In addition, the “Residual Activity Rate” value in data set [1] (additive conc. 10 w/v %) is reported as 55.4%.

Turning to `N[C@@H](CCC(=O)[O-])C(=O)[O-].[Na+].[Na+]` [Sodium L-glutamate, sodium L-glutamate], the “Residual Activity Rate” value in data set [1] (additive conc. 0.125 w/v %) is 76%; in data set [1] (additive conc. 0.25 w/v %), 71.1%; in data set [1] (additive conc. 0.5 w/v %), 98.6%; in data set [1] (additive conc. 1.0 w/v %), 92.5%; in data set [1] (additive conc. 2.0 w/v %), 87.8%; in data set [1] (additive conc. 5.0 w/v %) it was 79.4%. Moreover, in data set [1] (additive conc. 10 w/v %), the “Residual Activity Rate” value came to 65.3%.

Regarding `OC[C@H]1O[C@@](CO)(O[C@H]2O[C@H](CO)[C@@H](O)[C@H](O)[C@H]2O)[C@@H](O)[C@@H]1O` [Sucrose], the “effective concentration of stabilizer” value in data set [1] is listed as 1.25-40 w/v %. The “Residual Activity Rate” value came out at 86.7% in data set [1] (additive conc. 1.25 w/v %); 88.6% in data set [1] (additive conc. 2.5 w/v %); 90.0% in data set [1] (additive conc. 5.0 w/v %); 99.0% in data set [1] (additive conc. 10 w/v %); 100.0% in data set [1] (additive conc. 15 w/v %); 96.2% in data set [1] (additive conc. 20 w/v %). Besides, the “Residual Activity Rate” value in data set [1] (additive conc. 40 w/v %) turned out to be 75.7%.

Take `C[C@H](N)C(=O)O` [alanine]: the “effect as storage stabilizer (in words)” value in data set [2] is recorded as “ineffective”.

For the compound `NC(=O)CC[C@H](N)C(=O)O` [glutamine], in data set [2], the “effect as storage stabilizer (in words)” value is reported as “ineffective”.

With `O=C(O)[C@@H]1C[C@@H](O)CN1` [hydroxyproline], in data set [2], the “effect as storage stabilizer (in words)” value is given as “ineffective”.

With galactose, in data set [1], the “effective concentration of stabilizer” value is on record as 1.25-40 w/v %.

As to glucose, in data set [2], the “effect as storage stabilizer (in words)” value is on record as “ineffective”.
